Patent US12605407B2, “Methods to induce terminal differentiation in stem cells by interfering with DNA replication, methods of inducing pancreatic differentiation, and differentiated cells obtained thereof” (priority 2018, dated 2026)

Assays:
pancreatic progenitors = experiment: Beta cell differentiation from human pluripotent stem cells, flow cytometry of C-peptide and NKX6.1 positive cells; type: cell-based; details: for effectiveness to induce differentiation of pancreatic progenitors to C-peptide positive cells, comparison within panel: day 27; for percentage / number of C-peptide positive cells compared to control: end of differentiation on day 27, compounds added day 15 to day 27
Method: Beta cells differentiated from human pluripotent stem cell lines as described in Example 2 (Sui et al., 2018b). Indicated compounds that function as cell cycle inhibitors were added individually from day 15 to day 27 with concentration listed below:
The DNA replication inhibitors used in this study: 0.1 μM, 0.5 μM and 1 μM Aphidicolin (A0781, Sigma-Aldrich); 2.5 μM Cisplatin (232120, EMD Millipore); 100 μM Ciprofloxacin (S2027, Selleck Chemicals); 10 μM Pyridostatin (S7444, Selleck Chemicals); 10 μM E2F Inhibitor (324461, EMD Millipore); 0.05 μM A485 (6387, Tocris); 2 μM RL5a (SML2187, Sigma-Aldrich); and 2 μM Etoposide (E55500, Research Products International). Indicated compounds were added individually from day 15 to day 27 with indicated concentration.
(§1) The beta cell clusters were dissociated using TrypLE™ Express into single cells. Cells were fixed with 4% PFA for 10 min and followed by permeabilization at −20° C. with cold methanol for 10 min. Primary antibodies were added at a dilution of 1:100 in autoMACs Rinsing Solution (Cat. No. 130-091-222, Miltenyi Biotec) containing 0.5% BSA at 4° C. for 1 hour. Secondary antibodies were added at a dilution of 1:500 at room temperature for 1 hour. The cells were filtered with BD Falcon 12×75 mm tube with cell strainer cap (Cat. No. 352235, BD) and subsequently analyzed by flow cytometer. Data were analyzed using Flowjo software. Negative controls were performed by only adding secondary antibodies.
Aphidicolin (APH), a DNA polymerase inhibitor, was used to inhibit DNA replication (Koundrioukoff et al., 2013). […] The insulin expressing cells were evenly distributed in the islet-like clusters with high percentage indicated by the expression of GFP, whereas some parts of the clusters in control remained GFP negative (FIG. 1D).

[1] = tested on: stem cell derived beta cells; experiment: Stability of beta cell identity in long-term culture after removal of compound at day 27; type: cell-based, human; details: additional 30 days of culture (day 60)
Method: as §1
With APH, a high proportion of cells in the islet-like clusters were positive for C-peptide and NKX6.1, a transcription factor for maintaining the beta cell identity and functional maturation (Schaffer et al., 2013). […] Beta cells were cultured for additional 7 days until about day 34 and 30 days until about day 60 upon removal of these compounds at day 27. […] In contrast, in APH treated cells, there was no decrease in C-peptide or NKX6.1 on day 34 (FIG. 5A). […] After further culturing of the cells for extra 30 days, very few of cells in control group remained GFP expression and were positive for C-peptide.
The ability of other DNA replication inhibitors to stabilize the beta cell identity was investigated. The expressions of GFP were maintained after releasing cells from these inhibitors for 7 days until day 34. With additional 30 days of culture, the expressions of GFP were reduced in all conditions at certain levels, but the cells treated with Cis and Eto expressed higher GFP than the cells treated with APH compared to the other conditions (FIG. 5E, FIG. 5F).

Row | Compound | effectiveness to induce differentiation of pancreatic progenitors to C-peptide positive cells, comparison within panel (pancreatic progenitors) | expressions of GFP (insulin) [1] | percentage / number of C-peptide positive cells compared to control (pancreatic progenitors)
1 | COc1cc([C@@H]2c3cc4c(cc3[C@@H](O[C@@H]3O[C@@H]5CO[C@@H](C)O[C@H]5[C@H](O)[C@H]3O)[C@H]3COC(=O)[C@H]23)OCO4)cc(OC)c1O [Etoposide] | most effective | higher GFP | –
2 | O=C1NC(=O)c2c1c1c3ccccc3[nH]c1c1[nH]c3cc(Br)ccc3c21 [CDK4] | less effective | – | –
3 | CNC(=O)Nc1ccc2c(c1)CC[C@@]21OC(=O)N(CC(=O)N(Cc2ccc(F)cc2)[C@@H](C)C(F)(F)F)C1=O [P300 inhibitor] | – | – | no significant increase
4 | RL5a | less effective | – | failed to increase
5 | N.N.[Cl][Pt][Cl] [cisplatin, Cisplatin] | most effective | higher GFP | –
